Data published in US20230107642A1 (Erasca, Inc., priority 2020, published 2023).

biological target: T1, K-Ras G12C (Homo sapiens, UniProt P01116, G12C); test: CAF assay (% CAF; method in Example 7, not in this part); assay type: binding; settings: 10 uM compound, 1 h incubation
T1 construct: This protein contained 188 amino acids in total, including an N-terminal 6-Histidine tag; made in house; host or cells: E. coli BL21

SMILES	% CAF @ 10 uM, 1h
C=CC(=O)N1CCN(c2nc(=O)n3c4c(c(-c5ccc(F)cc5)c(C(F)(F)F)cc24)SC[C@@H]3CC2CCN(C3COC3)CC2)[C@@H](C)C1 [Example 425, (S)-7-((S)-4-acryloyl-2-methylpiperazin-1-fluorophenyl)-3-((1-(oxetan-3-yl)piperidin-4-yl)methyl)-9-(trifluoromethyl)-2H-[1,4]thiazino[2,3,4-ij]quinazolin-5(3H)-one]	94.7%
C=CC(=O)N1CCN(c2nc(=O)n3c4c(c(-c5ccc(F)cc5F)c(Cl)cc24)SC[C@@H]3CC2CCN(CC(F)F)CC2)[C@@H](C)C1 [Example 414, (3S)-7-((S)-4-acryloyl-2-methylpiperazin-1-yl)-9-chloro-3-((1-(2,2-difluoroethyl)piperidin-4-yl)methyl)-10-(2,4-difluorophenyl)-2H-[1,4]thiazino[2,3,4-ij]quinazolin-5(3H)-one]	92%
C=CC(=O)N1CCN(c2nc(=O)n3c4c(c(-c5ccc(F)cc5F)c(Cl)cc24)SC[C@H]3COC2CN(CC)C2)[C@@H](C)C1 [Example 432, (3R)-7-((S)-4-acryloyl-2-methylpiperazin-1-yl)-9-chloro-10-(2,4-difluorophenyl)-3-(((1-ethylazetidin-3-yl)oxy)methyl)-2,3-dihydro-5H-[1,4]thiazino[2,3,4-ij]quinazolin-5-one]	2.6%
C=CC(=O)N1CCN(c2nc(=O)n3c4c(c(-c5ccc(F)cc5F)c(C(F)(F)F)cc24)SCCC3)[C@@H](C)C1 [Example 450, 8-((S)-4-acryloyl-2-methylpiperazin-1-yl)-11-(2,4-difluorophenyl)-10-(trifluoromethyl)-3,4-dihydro-2H,6H-[1,4]thiazepino[2,3,4-ij]quinazolin-6-one]	61%
C=CC(=O)N1C[C@H](C)N(c2nc(=O)n3c4c(c(-c5cc(F)c(F)cc5F)c(C(F)(F)F)cc24)SC[C@@H]3CN2CCN(CC(F)F)CC2)C[C@H]1C [Example 443, (3S)-7-((2S,5R)-4-acryloyl-2,5-dimethylpiperazin-1-yl)-3-((4-(2,2-difluoroethyl)piperazin-1-yl)methyl)-9-(trifluoromethyl)-10-(2,4,5-trifluorophenyl)-2H-[1,4]thiazino[2,3,4-ij]quinazolin-5(3H)-one]	48.2%
C/C=C/C(=O)N1C2CC(=O)CC1CN(c1nc(=O)n3c4c(c(-c5ccc(F)cc5F)c(C(F)(F)F)cc14)SCC3)C2 [Example 452, (E)-7-(9-(but-2-enoyl)-7-oxo-3,9-diazabicyclo[3.3.1]nonan-3-yl)-10-(2,4-difluorophenyl)-9-(trifluoromethyl)-2,3-dihydro-5H-[1,4]thiazino[2,3,4-ij]quinazolin-5-one]	63%
C=CC(=O)N1C[C@H](C)N(c2nc(=O)n3c4c(c(-c5ccc(F)cc5F)c(C(F)(F)F)cc24)SC[C@@H]3CN2CCN(CC(F)F)CC2)C[C@H]1C [Example 562, (3S)-7-((2S,5R)-4-acryloyl-2,5-dimethylpiperazin-1-yl)-3-((4-(2,2-difluoroethyl)piperazin-1-yl)methyl)-10-(2,4-difluorophenyl)-9-(trifluoromethyl)-2H-[1,4]thiazino[2,3,4-ij]quinazolin-5(3H)-one]	83.6%
C=CC(=O)N1C[C@H](C)N(c2nc(=O)n3c4c(c(-c5ccc(F)cc5)c(C(F)(F)F)cc24)SC[C@@H]3COCCOC)C[C@H]1C [Example 512, (S)-7-((2S,5R)-4-acryloyl-2,5-dimethylpiperazin-1-yl)-10-(4-fluorophenyl)-3-((2-methoxyethoxy)methyl)-9-(trifluoromethyl)-2H-[1,4]thiazino[2,3,4-ij]quinazolin-5(3H)-one]	66.1%
C=CC(=O)N1CCN(c2nc(=O)n3c4c(c(-c5ccc(F)cc5F)c(C(F)(F)F)cc24)SC[C@@H](N(C)CC(F)(F)F)C3)[C@@H](C)C1 [Example 454, (3S)-8-((S)-4-acryloyl-2-methylpiperazin-1-yl)-11-(2,4-difluorophenyl)-3-(methyl(2,2,2-trifluoroethyl)amino)-10-(trifluoromethyl)-3,4-dihydro-2H,6H-[1,4]thiazepino[2,3,4-ij]quinazolin-6-one]	61%

Now from value to molecule:

% CAF @ 10 uM, 1h	SMILES
98%	C=CC(=O)N1CCN(c2nc(=O)n3c4c(c(-c5ccc(F)cc5)c(Cl)cc24)SC[C@H](OC)C3)CC1 [Example 540, (R)-8-(4-acryloylpiperazin-1-yl)-10-chloro-11-(4-fluorophenyl)-3-methoxy-3,4-dihydro-2H,6H-[1,4]thiazepino[2,3,4-ij]quinazolin-6-one]
64.3%	C=CC(=O)N1C[C@H](C)N(c2nc(=O)n3c4c(c(-c5ccc(F)cc5)c(Cl)cc24)SC[C@@H]3COCCOC)C[C@H]1C [Example 558, (S)-7-((2S,5R)-4-acryloyl-2,5-dimethylpiperazin-1-yl)-9-chloro-10-(4-fluorophenyl)-3-((2-methoxyethoxy)methyl)-2H-[1,4]thiazino[2,3,4-ij]quinazolin-5(3H)-one]
74.4%	C=CC(=O)N1CCN(c2nc(=O)n3c4c(c(-c5ccc(F)cc5)c(C(F)(F)F)cc24)SC[C@@H]3COCOC)[C@@H](C)C1 [Example 516, (S)-7-((S)-4-acryloyl-2-methylpiperazin-1-yl)-10-(4-fluorophenyl)-3-((methoxymethoxy)methyl)-9-(trifluoromethyl)-2H-[1,4]thiazino[2,3,4-ij]quinazolin-5(3H)-one]

same assay, conditions: 10 uM, 60 min; Table 2a

% CAF 10 uM @ 60 min	SMILES
88.8%	C=CC(=O)N1CCN(c2nc(=O)n3c4c(c(-c5ccc(F)cc5F)c(Cl)cc24)S(=O)(=O)CC3)[C@@H](C)C1 [Example 190, 7-((S)-4-acryloyl-2-methylpiperazin-1-yl)-9-chloro-10-(2,4-difluorophenyl)-2,3-dihydro-5H-[1,4]thiazino[2,3,4-ij]quinazolin-5-one 1,1-dioxide]

same assay, conditions: 10 uM, 1 h; Table 3

SMILES	% CAF @ 10 uM, 1h
C=CC(=O)N1CCN(c2nc(=O)n3c4c(c(-c5ccc(F)cc5F)c(Cl)cc24)SCC3)C2CS(=O)(=O)CC21 (stereo not shown) [Example 131, 7-(4-acryloyl-6,6-dioxidohexahydrothieno[3,4-b]pyrazin-1(2H)-yl)-9-chloro-10-(2,4-difluorophenyl)-2,3-dihydro-5H-[1,4]thiazino[2,3,4-ij]quinazolin-5-one]	82.2%
C=CC(=O)N1CCN(c2nc(=O)n3c4c(c(-c5ccc(F)cc5F)c(Cl)cc24)S(=O)(=O)CC3)[C@@H](C)C1 [Example 190, 7-((S)-4-acryloyl-2-methylpiperazin-1-yl)-9-chloro-10-(2,4-difluorophenyl)-2,3-dihydro-5H-[1,4]thiazino[2,3,4-ij]quinazolin-5-one 1,1-dioxide]	88.2%
C=CC(=O)N1C[C@H](C#N)N(c2nc(=O)n3c4c(c(-c5ccc(F)cc5F)c(Cl)cc24)SCC3)C[C@H]1C [Example 161, (2R,5R)-4-acryloyl-1-(9-chloro-10-(2,4-difluorophenyl)-5-oxo-2,3-dihydro-5H-[1,4]thiazino[2,3,4-ij]quinazolin-7-yl)-5-methylpiperazine-2-carbonitrile]	1%
C=CC(=O)N1CCN(c2nc(=O)n3c4c(c(-c5ccc(F)cc5F)c(Cl)cc24)SCC3)CC12CN(C)C2=O (stereo not shown) [Example 133, 7-(5-acryloyl-2-methyl-1-oxo-2,5,8-triazaspiro[3.5]nonan-8-yl)-9-chloro-10-(2,4-difluorophenyl)-2,3-dihydro-5H-[1,4]thiazino[2,3,4-ij]quinazolin-5-one]	51.9%

More lines, now with the values ahead:

% CAF @ 10 uM, 1h	SMILES
90.7%	C=CC(=O)N1CCN(c2nc(=O)n3c4c(c(-c5c(F)cc(F)cc5F)c(Cl)cc24)SCC3)[C@@H](C)C1 [Example 146, (S)-7-(4-acryloyl-2-methylpiperazin-1-yl)-9-chloro-10-(2,4,6-trifluorophenyl)-2,3-dihydro-5H-[1,4]thiazino[2,3,4-ij]quinazolin-5-one]
92.5%	C=CC(=O)N1CCN(c2nc(=O)n3c4c(c(-c5ccc(F)cc5F)c(OC)cc24)SCC3)[C@@H](C)C1 [Example 103, 7-((S)-4-acryloyl-2-methylpiperazin-1-yl)-10-(2,4-difluorophenyl)-9-methoxy-2,3-dihydro-5H-[1,4]thiazino[2,3,4-ij]quinazolin-5-one]
78.8%	C=CC(=O)N1CCN(c2nc(=O)n3c4c(c(-c5cc(F)c(F)c(F)c5)c(Cl)cc24)SCC3)[C@@H](C)C1 [Example 90, (S)-7-(4-acryloyl-2-methylpiperazin-1-yl)-9-chloro-10-(3,4,5-trifluorophenyl)-2,3-dihydro-5H-[1,4]thiazino[2,3,4-ij]quinazolin-5-one]
79.8%	C=CC(=O)N1CCN(c2nc(=O)n3c4c(c(-c5cc(Cl)ccc5F)c(Cl)cc24)SCC3)[C@@H](C)C1 [Example 175, 7-((S)-4-acryloyl-2-methylpiperazin-1-yl)-9-chloro-10-(5-chloro-2-fluorophenyl)-2,3-dihydro-5H-[1,4]thiazino[2,3,4-ij]quinazolin-5-one]
39%	C=CC(=O)N1CCN(c2nc(=O)n3c4c(c(-c5cc(C(F)F)ccc5F)c(Cl)cc24)SCC3)[C@@H](C)C1 [Example 162, 7-((S)-4-acryloyl-2-methylpiperazin-1-yl)-9-chloro-10-(5-(difluoromethyl)-2-fluorophenyl)-2,3-dihydro-5H-[1,4]thiazino[2,3,4-ij]quinazolin-5-one]
54%	C=CC(=O)N1CCN(c2nc(=O)n3c4c(c(-c5cccc6c5C(=O)NC6)c(Cl)cc24)SCC3)[C@@H](C)C1 [Example 96, 7-((S)-4-acryloyl-2-methylpiperazin-1-yl)-9-chloro-10-(3-oxoisoindolin-4-yl)-2,3-dihydro-5H-[1,4]thiazino[2,3,4-ij]quinazolin-5-one]

same assay, conditions: 10 μM, 1 h; Table 4

% CAF @ 10 μM, 1 h	SMILES
94.8%	C=CC(=O)N1CCN(c2nc(=O)n3c4c(c(-c5c(F)cc(F)cc5F)c(Cl)cc24)SC[C@H]3CC2CCN(C)CC2)[C@@H](C)C1 [Example 344, (R)-7-((S)-4-acryloyl-2-methylpiperazin-1-yl)-9-chloro-3-((1-methylpiperidin-4-yl)methyl)-10-(2,4,6-trifluorophenyl)-2H-[1,4]thiazino[2,3,4-ij]quinazolin-5(3H)-one]
96%	C=CC(=O)N1CCN(c2nc(=O)n3c4c(c(-c5ccc(F)cc5F)c(Cl)cc24)SC[C@@H]3CN2CCN(CC)CC2)[C@@H](C)C1 [Example 354, (3S)-7-((S)-4-acryloyl-2-methylpiperazin-1-yl)-9-chloro-10-(2,4-difluorophenyl)-3-((4-ethylpiperazin-1-yl)methyl)-2H-[1,4]thiazino[2,3,4-ij]quinazolin-5(3H)-one]
